Results on 14 compounds are retold here after publication PMC11865978, “Cellular Activity of CQWW Nullomer-Derived Peptides” (ACS Omega, 2025).

Non-standard residues stand in square brackets, D forms with d. Residues, ends and D or L forms follow the SMILES beside them. No end group written: not given here.

For one test, the system named is GCGR-E13. Type of test: cell-based, human. Particulars: 72 h. As to the method: (§1) Peptides were tested in an automated image-based high-content[42] cell painting[43],[44] assay that was originally developed to explore the mechanism of action of pharmacological and genetic perturbations within cells,[45] as well as a live cell imaging assay against six patient-derived glioblastoma cell lines (GCGR-E13, GCGR-E28, GCGR-E21, GCGR-E57, GCGR-E31, and GCGR-E34), covering classical, mesenchymal, and proneural subtypes, respectively (see Methods and Figure 1B–D), along with a healthy human fetal neuronal stem cell line (GCGR-NS9FB_B).
(§2) Cell survival was quantified by nuclei counts from the Hoechst dye-stained nuclei and IC50 values calculated along with 95% confidence intervals (Figure 1B; see Table S2 for full details). […]
(§3) High Content Phenotypic Screening assays
(§4) Cell lines (glioma stem cell lines and normal foetal neural stem cells) were seeded on laminin (10 µg/mL) coated 384-well plates (Greiner Bio-One, 781091) at 1,000 cells/well and incubated overnight at 37 °C and 5% CO2. Aqueous peptide solutions (10 mM) were further diluted to 1 mM in water containing 10 % glycerol and 0.01 % TX-100. […]
(§5) The cells were placed in an IncuCyte live cell imager (Essen BioScience) and imaged every three hours for 72 hours. Prior to fixation, the plates were removed from the IncuCyte and stained with Mitrotracker DeepRed (Invitrogen, M22426, 300 nM, 30 minutes). Cells were then fixed using 4 % formaldehyde and permeabilized with 0.1 % TX-100 in PBS. The cells were stained with ‘Cell Painting’ […]
(§6) assay reagents1: Hoechst 33342 (10 mg/mL stock, Molecular Probes, 1:5000), SYTO14 […]
(§7) BSA/PBS. The plates were imaged using an ImageXpress high content microscope (Molecular Devices). Cells were imaged with a 20× objective, covering 6 fields-of-view in each well. The data was then analyzed using a custom CellProfiler software pipeline using the University of Edinburgh high performance computing cluster. Dose response plots were calculated using HC StratomineR (corelifeanalytics.com). Nuclei count data was analyzed separately to generate cell survival metrics (normalized to aqueous glycerol/TX -100 control). […]

A further test concerns GCGR-E21. Type of test: cell-based, human. Particulars: 72 h. As to the method: as §1, §2, §3, §4, §5, §6, §7
The subject of the next test is GCGR-E34. Type of test: cell-based, human. Particulars: 72 h. The procedure: as §1, §2, §3, §4, §5, §6, §7
The next test relates to GCGR-E28. It is filed as cell-based, human. Particulars: 72 h. As to the method:
as §1, §2, §3
(§8) Cell lines (glioma stem cell lines and normal foetal neural stem cells) were seeded on laminin (10 µg/mL) coated 384-well plates (Greiner Bio-One, 781091) at 1,000 cells/well and incubated overnight at 37 °C and 5% CO2. Aqueous peptide solutions (10 mM) were further diluted to 1 mM in water containing 10 % glycerol and 0.01 % TX-100. Cells were dosed using a D300 digital dispenser (Tecan) by 10-point dose response (30 µM – 1 µM) in triplicate and with aqueous glycerol/TX-100 as control. The cells were placed in an IncuCyte live cell imager (Essen BioScience) and imaged every three hours for 72 hours. Prior to fixation, the plates were removed from the IncuCyte and stained with Mitrotracker DeepRed (Invitrogen, M22426, 300 nM, 30 minutes). Cells were then fixed using 4 % formaldehyde and permeabilized with 0.1 % TX-100 in PBS. The cells were stained with ‘Cell Painting’ […]
as §6, §7

Another test concerns GCGR-E31. Type of test: cell-based, human. Particulars: 72 h. The procedure:
as §1, §2, §3, §8, §6, §7

Another test relates to GCGR-E57. It is filed as cell-based, human. Particulars: 72 h. The procedure: as §1, §2, §3, §8, §6, §7
Another test relates to NCI-60 panel. Particulars: 60 cell lines from human cancers of nine organs; cited from earlier work. An excerpt: (§9) Closely related to nullomer peptides, rarely observed amino acid stretches have also been studied by Capone et al., who assert that the minimal sufficient antigenic determinants of a protein could be encoded in just five rarely seen amino acids.[20] Complementing this, Patel et al. noted that these rare sequences could be used to enhance antigen-specific immune responses when dosed alongside adjuvant vaccines.[21] It was also noted by Koulouras et al. that human viruses rarely share human nullomers, facilitating host mimicry and immune evasion,[22] an interesting example of this being highligh ...

For test [1], the system named is normal cell lines and cancer cell lines. Particulars: cited from earlier work.
Excerpt: as §9

A further test relates to GCGR-NS9FB_B. It is filed as cell-based, human. Particulars: 72 h. The procedure: as §1, §2, §3, §8, §6, §7
For a further test, the system named is GSK-3. The experiment in a line: Reverse phase protein array (RPPA). It is filed as cell-based, human. Particulars: peptides at 3 μM, 3 h and 24 h (peptide 7: 24 h only), seven cell lines; fold difference vs water control. An excerpt: The phenotypic effect of the peptides was visualized by live cell imaging (Figure 1C, IncuCyte live cell imager) and also quantified via image analysis of cells labeled with the cell painting reagents (see Supporting Information) followed by image analysis using Cell Profiler (cellprofiler.org). Multiparametric outputs from Cell Profiler were processed using Phenonaut[46] [v 2.0.3] (see Jupyter notebook ‘Phenonaut_processing_of_nullomer_data.ipynb’ in the Aminonaut repository for methods and code used). […] Peptides 2, 5, and 7 were deemed to have the most merit for mode of action determination using reverse phase protein arrays (RPPAs) (see Supporting Information for methods). […]
growth and stemness was further supported by the addition of laminin extracellular matrix (Cultrex 3446-005-01, 4-10 mg/mL) to the growth media and to create pre-coated flasks/384w plates. Cells were cultured in T75 cm2 flasks and passaged as follows: Glioma stem cells generally grow slowly (~60hrs doubling time, excepting GCGR-E57 cells ~24hrs) and lag phase was exacerbated by sparse seeding. Cell confluence is generally ~80 -90% prior to passaging, whereby the culture media was aspirated, the cells washed (PBS) and Accutase solution (Sigma A6964, 1 mL) was added to detach the cells, which were then incubated at 37 °C for <5 minutes. Cells were resuspended in media and centrifuged for 3 minutes at 300 × g. Resuspended cells were typically split 1:5, 1:8 (GCGR-E57 cells) and 1:2, 1:4 for the remainder of cell lines, depending on requirements . Cells were passaged every 4-7 days to maintain health and growth and discarded after 3 months, whereupon a fresh batch of cells […]
Reverse Phase Protein Array (RPPA)
Culture media was aspirated and cells washed with wash media. Accutase solution (1mL) was used to detach the cells which were then incubated at 37 °C for 5 minutes. 10 mL of wash media was added, and the cells were pipetted into a 15 mL conical tube, after which they were centrifuged for 3 minutes at 300× g to form a pellet. Supernatant was aspirated, and cells resuspended in 5 mL of wash media. A 10 μL sample of the cell suspension was pipetted onto the reading surface of a DeNovix CellDrop automated cell counter and the reading was used to dilute the suspension in complete media to 250,000 cells/mL. 2 mL of this suspension was added to each well of 6-well plates to seed plates at 500,000 cells per well. 2 plates of each cell type (GCGR-E13, GCGR-E21, GCGR-E28, GCGR-E31, GCGR-E34, GCGR-E57 and GCGR-NS9FB_B) were seeded, one each for two nullomer dosage […]
timepoints (3 h and 24 h). The cells were incubated in the 6-well plates overnight, and dosing was carried out in the following morning. […]

Regarding RRRRRFQWW-NH2 [Peptide 13], the IC50 with GCGR-E13 was 52 µM; in the test with GCGR-E21, 81.3 µM; with GCGR-E34, above 100 µM; in the test on GCGR-E28, 29.6 µM; with GCGR-E31, 101 µM; with GCGR-E57 it was 55.7 µM.
Compound “RRRRR-NH2 [Peptide 15, reference compound]” came in with an IC50 in the test on GCGR-E34 of 15.8 µM.
In the case of “NWMWC [pentamer peptide nullomer of Alileche et al]”, the “lethal effect on NCI-60 panel” value in the test with NCI-60 panel is given as “lethal to a high fraction of oncogenic cell lines”. Further, the mitochondrial impairment result in [1] is “caused mitochondrial impairment in both normal cell lines and cancer cell lines”.
Turning to RRRRRQWW-NH2 [Peptide 11], the half-inhibitory concentration (IC50) with GCGR-E13 is 110 µM; with GCGR-E21, 158 µM; in the test with GCGR-E34, 114 µM; in the test with GCGR-E28, 72.6 µM; in the test with GCGR-E31, 74.3 µM; with GCGR-E57, 99.5 µM.
With RRRRRCAWW-NH2 [Peptide 7], the IC50 stood at 10.6 µM in the test with GCGR-E13; 11.2 µM in the test on GCGR-E21; 6 µM with GCGR-E34; 9.7 µM in the test on GCGR-E28; 12.1 µM in the test on GCGR-E31; 6.3 µM in the test with GCGR-E57. The same compound yielded an IC50 in the test on GCGR-NS9FB_B of 11.9 µM. In the test with GSK-3, the “GSK-3 regulation in RPPA” value is reported as “downregulation of GSK-3β”.
For the compound RRRRRCQW-NH2 [Peptide 10], the IC50 is above 100 µM with GCGR-E13; above 100 µM in the test on GCGR-E21; 154 µM in the test with GCGR-E34; 168 µM in the test on GCGR-E28; above 100 µM with GCGR-E31; 108 µM in the test on GCGR-E57.
Take RRRRRCQAW-NH2 [Peptide 8]: the IC50 in the test with GCGR-E13 came out at 100 µM; in the test on GCGR-E21, 75 µM; in the test with GCGR-E34, 100 µM; in the test with GCGR-E28, 100 µM; with GCGR-E31, 238 µM; in the test on GCGR-E57, 100 µM. Besides, in the test with GCGR-NS9FB_B, inhibition was half-maximal at 100 µM (IC50).
Consider RRRRRHQWW-NH2 [Peptide 14], for which the half-maximal inhibitory concentration (IC50) in the test on GCGR-E13 is 52 µM; in the test on GCGR-E21, 132 µM; in the test with GCGR-E34 it was above 100 µM; in the test on GCGR-E28 it was 58 µM; in the test on GCGR-E31 it was 123 µM; in the test on GCGR-E57 it was 119 µM.
Consider `N=C(N)NCCC[C@H](NC(=O)[C@H](CCCNC(=N)N)NC(=O)[C@H](CCCNC(=N)N)NC(=O)[C@@H](N)CCCNC(=N)N)C(=O)N[C@@H](CCCNC(=N)N)C(=O)N[C@H](Cc1c[nH]c2ccccc12)C(=O)N[C@H](Cc1c[nH]c2ccccc12)C(=O)N[C@H](CCC(N)=O)C(=O)N[C@H](CS)C(N)=O` [Peptide 5] (H-RRRRR[dW][dW][dQ][dC]-NH2), for which the IC50 turned out to be 13.6 µM with GCGR-E13; 16.3 µM in the test with GCGR-E21; 17.6 µM in the test on GCGR-E34; 13.2 µM in the test on GCGR-E28; 15.7 µM in the test on GCGR-E31; 9.9 µM with GCGR-E57. The compound also displayed an IC50 in the test on GCGR-NS9FB_B of 15.9 µM. Besides, the “GSK-3 regulation in RPPA” value with GSK-3 is “downregulation of GSK-3β”.
As for `N=C(N)NCCC[C@H](NC(=O)[C@H](CCCNC(=N)N)NC(=O)[C@H](CCCNC(=N)N)NC(=O)[C@@H](N)CCCNC(=N)N)C(=O)N[C@@H](CCCNC(=N)N)C(=O)N[C@H](CS)C(=O)N[C@H](CCC(N)=O)C(=O)N[C@H](Cc1c[nH]c2ccccc12)C(=O)N[C@H](Cc1c[nH]c2ccccc12)C(N)=O` [Peptide 3] (H-RRRRR[dC][dQ][dW][dW]-NH2), the concentration for half-maximal inhibition (IC50) in the test on GCGR-E13 worked out at 6.9 µM; in the test with GCGR-E21 it was 7.5 µM; in the test on GCGR-E34 it was 5.3 µM; with GCGR-E28, 8.4 µM; with GCGR-E31, 8.7 µM; in the test with GCGR-E57 it was 5.4 µM. Also, the IC50 with GCGR-NS9FB_B came out at 9.7 µM. In addition, the “GSK-3 regulation in RPPA” value with GSK-3 is recorded as “downregulation of GSK-3”.
Regarding RRRRRCQWA-NH2 [Peptide 9], the IC50 in the test with GCGR-E13 is above 30 µM; in the test with GCGR-E21, above 30 µM; with GCGR-E34, 15.8 µM; in the test on GCGR-E28 it was above 30 µM; in the test with GCGR-E31, above 30 µM; with GCGR-E57, above 30 µM. Moreover, the IC50 in the test on GCGR-NS9FB_B is above 30 µM.
For RRRRRWWQC-NH2 [Peptide 4], the half-inhibitory concentration (IC50) in the test on GCGR-E13 was found to be 13.1 µM; in the test with GCGR-E21, 12.8 µM; in the test with GCGR-E34, 8.6 µM; in the test with GCGR-E28 it was 10.9 µM; with GCGR-E31, 11.8 µM; in the test on GCGR-E57, 9 µM. This compound also registered a half-inhibitory concentration (IC50) in the test on GCGR-NS9FB_B of 13.8 µM.
Take RRRRRMQWW-NH2 [Peptide 12]: the IC50 is 117 µM with GCGR-E13; 122 µM in the test with GCGR-E21; above 100 µM in the test with GCGR-E34; 100 µM in the test on GCGR-E28; 59.7 µM in the test on GCGR-E31; above 100 µM in the test on GCGR-E57.
Take RRRRRAQWW-NH2 [Peptide 6]: the 50% inhibitory concentration (IC50) in the test with GCGR-E13 came out at 151 µM; in the test with GCGR-E21, 279 µM; in the test on GCGR-E28, 86 µM.

As a reminder, the IC50 is the concentration that gives 50% inhibition. Read a low IC50 as inhibition by little substance.
